Source: patent US10604489B2, “Compounds for the treatment of pain” (priority 2018, dated 2020)
Structures can show the parent of a compound that is named as a salt.

Columns and labels:
human μ opioid receptor [1] = target: T1, human μ opioid receptor (Homo sapiens (Human), UniProt P35372); experiment: Alternate functional activity ([35S]GTPγS binding) assay, SPA beads; format: biochemical; settings: alternate assay: [35S]GTPγS 0.020 nM, CHO cell membranes with WGA PVT SPA beads
Description: The [^35S]GTPγS assay measures the functional properties of a compound by quantifying the level of G-protein activation following agonist binding in studies using stably transfected cells, and is considered to be a measure of the efficacy of a compound. Membranes from CHO (Chinese Hamster Ovary) cells that stably expressed one type of the cloned human opioid receptor human were used in the experiments. The assay buffer consisted of 50 mM Tris-HCl, pH 7.4, 3 mM MgCl2, 0.2 mM EGTA, 5 μM GDP, and 100 mM NaCl. CHO cell membranes stably expressing the human p opioid receptor were pre-incubated with scintillation proximity assay beads from PerkinElmer® (WGA PVT SPA) for 30 minutes, at 8 µg membrane and […] beads in a volume of 0.1 mL per reaction. In a final volume of 0.2 mL, 11 different concentrations of each test compound were incubated with the membrane-SPA bead mixture and a final concentration of 0.020 nM [35S]GTPγS for 1.5 hours with gentle shaking. Reactions were then incubated for 5 hours. Data are the mean EC50 values ±S.E.M. EC50 values (nM) for compounds 12, 16, 19, 20, 149, 151, 152, 157, 160, 161, 164-169, 172, 173, 180-197, and 199-207 are shown in Table 1.

μ-receptor [2] = target: T2, μ-receptor (Homo sapiens (Human), UniProt P35372); experiment: Alternate receptor binding assay, competitive displacement of [3H]DAMGO; settings: alternate assay: 0.8 nM [3H]DAMGO, 5 mM MgCl2, CHO cell membrane protein, 120 min
Male Sprague-Dawley rats [3] = settings: maximum pCO2 within 2 hours of administration, subcutaneous, rat; for <60 mmHg @ 10X CFA MEMD: dose 10× CFA MEMD; for <60 mmHg @ 100X CFA MEMD: dose 100× CFA MEMD
Male Sprague-Dawley rats [4] = experiment: animal or person; format: in vivo, rat; settings: sc; minimum dose at which maximal reversal of hind paw weight bearing (50±0.5%) was achieved; subcutaneous administration; rat; read-out: MEMD SC CFA
μ-receptor [5] = target: T2, μ-receptor; experiment: Receptor binding, competitive displacement of [3H]DAMGO; settings: 0.25 nM [3H]DAMGO, CHO cell membrane protein, 60 min at 25° C.
Method in brief: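 Ki derived via Cheng-Prusoff from IC50 (log-probit fit) of displacement of 0.25 nM [3H]DAMGO, 12 concentrations, from human μ-receptor in CHO cell membranes. Binding: 50 mM Tris-HCl pH 7.5, 25 °C, 60 min, 10 μM naloxone defining nonspecific, filter-bound radioactivity counted.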

human μ opioid receptor [6] = target: T1, human μ opioid receptor; experiment: Functional activity ([35S]GTPγS binding); format: biochemical; settings: [35S]GTPγS 0.080 nM, CHO cell membranes, 60 min at 30° C., filtration
Method in brief: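 Membranes from stably transfected CHO cells (7.5 μg) incubated with 12 test-compound concentrations and 0.080 nM [35S]GTPγS in 50 mM Tris-HCl pH 7.4, 3 mM MgCl2, 0.2 mM EGTA, 3 μM GDP, 100 mM NaCl, 60 min at 30° C. Nonspecific binding defined with 10 μM GTPγS; bound label collected by filtration and scintillation counting.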

Structure (SMILES) | EC50 (human μ opioid receptor [1]) [nM] | Ki (μ-receptor [2]) [nM] | other results
COC1(c2cccc(C(N)=O)c2)C2CCCC1CN(C1CC3CCC(C1)O3)C2 (single isomer, unassigned) [Compound 16, hydrochloride] | < 10 | < 1 | –
COC1(c2ccnc(C(N)=O)c2)C2CCCC1CN(C1CC3CCC(C1)O3)C2 [Compound 12, 4-((1R,5S,9R)-3-((1R,3s,5S)-8-oxabicyclo[3.2.1]octan-3-yl)-9-methoxy-3-azabicyclo[3.3.1]nonan-9-yl)picolinamide hydrochloride] | 10 to 75 | – | Ki (μ-receptor [2]; hydrochloride): < 1 nM
COC1(c2cccc(C(N)=O)c2)C2CCCC1CN([C@@H](C)c1cnc[nH]1)C2 (stereo partly drawn) [Compound 19, 3-((1R,5S,9S)-3-((S)-1-(1H-imidazol-5-yl)ethyl)-9-methoxy-3-azabicyclo[3.3.1]nonan-9-yl)benzamide hydrochloride] | < 10 | < 1 | –
COC1(c2cccc(C(N)=O)c2)C2CCCC1CN([C@H](C)c1cnc[nH]1)C2 (stereo partly drawn) [Compound 20, 3-((1R,5S,9R)-3-((R)-1-(1H-imidazol-5-yl)ethyl)-9-methoxy-3-azabicyclo[3.3.1]nonan-9-yl)benzamide hydrochloride] | 10 to 75 | 1 to 5 | –
COC1(c2ccnc(C(N)=O)c2)C2CCCC1CN(Cc1cnn[nH]1)C2.Cl [Compound 108, 4-((1R,5S,9r)-3-((1H-1,2,3-triazol-5-yl)methyl)-9-methoxy-3-azabicyclo[3.3.1]nonan-9-yl)picolinamide hydrochloride] | – | – | <60 mmHg @ 10X CFA MEMD (Male Sprague-Dawley rats [3]): + (resulted in a maximum pCO2 value of less than 60 mmHg within 2 hours of administration); <60 mmHg @ 100X CFA MEMD (Male Sprague-Dawley rats [3]): + (resulted in a maximum pCO2 value of less than 60 mmHg within 2 hours of administration); minimal effective dose (Male Sprague-Dawley rats [4]): 0.3 mg/kg; Ki (μ-receptor [5]): 1 to 5 nM; EC50 (human μ opioid receptor [6]): 10 to 75 nM
COC1(c2cccc(C(N)=O)c2)C2CCCC1CN(CC1CCOCC1)C2.Cl [Compound 122, 3-((1R,5S,9r)-9-methoxy-3-((tetrahydro-2H-pyran-4-yl)methyl)-3-azabicyclo[3.3.1]nonan-9-yl)benzamide hydrochloride] | – | – | <60 mmHg @ 10X CFA MEMD (Male Sprague-Dawley rats [3]): + (resulted in a maximum pCO2 value of less than 60 mmHg within 2 hours of administration); minimal effective dose (Male Sprague-Dawley rats [4]): 0.3 mg/kg; Ki (μ-receptor [5]): 1 to 5 nM; EC50 (human μ opioid receptor [6]): 10 to 75 nM
COC1(c2ccnc(C(N)=O)c2)C2CCCC1CN(Cc1cn(C)cn1)C2.Cl [Compound 123, 4-((1R,5S,9r)-9-methoxy-3-((1-methyl-1H-imidazol-4-yl)methyl)-3-azabicyclo[3.3.1]nonan-9-yl)picolinamide hydrochloride] | – | – | <60 mmHg @ 10X CFA MEMD (Male Sprague-Dawley rats [3]): + (resulted in a maximum pCO2 value of less than 60 mmHg within 2 hours of administration); minimal effective dose (Male Sprague-Dawley rats [4]): 1 mg/kg; Ki (μ-receptor [5]): 1 to 5 nM; EC50 (human μ opioid receptor [6]): 10 to 75 nM
COC1(c2ccnc(C(N)=O)c2)C2CCCC1CN(Cc1c[nH]c3ccccc13)C2.Cl [Compound 126, 4-((1R,5S,9r)-3-((1H-indol-3-yl)methyl)-9-methoxy-3-azabicyclo[3.3.1]nonan-9-yl)picolinamide hydrochloride] | – | – | <60 mmHg @ 10X CFA MEMD (Male Sprague-Dawley rats [3]): − (resulted in a maximum pCO2 value of greater than 60 mmHg within 2 hours of administration); minimal effective dose (Male Sprague-Dawley rats [4]): 0.1 mg/kg; Ki (μ-receptor [5]): < 1 nM; EC50 (human μ opioid receptor [6]): < 10 nM
COC1(c2ccnc(C(N)=O)c2)C2CCCC1CN(CC1CCOCC1)C2.Cl [Compound 127, 4-((1R,5S,9r)-9-methoxy-3-((tetrahydro-2H-pyran-4-yl)methyl)-3-azabicyclo[3.3.1]nonan-9-yl)picolinamide hydrochloride] | – | – | <60 mmHg @ 10X CFA MEMD (Male Sprague-Dawley rats [3]): + (resulted in a maximum pCO2 value of less than 60 mmHg within 2 hours of administration); <60 mmHg @ 100X CFA MEMD (Male Sprague-Dawley rats [3]): + (resulted in a maximum pCO2 value of less than 60 mmHg within 2 hours of administration); minimal effective dose (Male Sprague-Dawley rats [4]): 0.1 mg/kg; Ki (μ-receptor [5]): 1 to 5 nM; EC50 (human μ opioid receptor [6]): 10 to 75 nM
COC1(c2cccc(C(N)=O)c2)C2CCCC1CN(C1CC3(COC3)C1)C2.O=C(O)CC(O)C(=O)O [Compound 133, 3-((1R,5S,9r)-9-methoxy-3-(2-oxaspiro[3.3]heptan-6-yl)-3-azabicyclo[3.3.1]nonan-9-yl)benzamide (S)-2-hydroxysuccinate] | – | – | <60 mmHg @ 10X CFA MEMD (Male Sprague-Dawley rats [3]): + (resulted in a maximum pCO2 value of less than 60 mmHg within 2 hours of administration); minimal effective dose (Male Sprague-Dawley rats [4]): 1 mg/kg; Ki (μ-receptor [5]): < 1 nM; EC50 (human μ opioid receptor [6]): < 10 nM
COC1(c2cccc(C(N)=O)c2)C2CCCC1CN(Cc1cnc(C)[nH]1)C2 [Compound 149, 3-((1R,5S,9r)-9-methoxy-34(2-methyl-1H-imidazol-4-yl)methyl)-3-azabicyclo[3.3.1]nonan-9-yl)benzamide hydrochloride] | < 10 | < 1 | –
COC1(c2cccc(C(N)=O)c2)C2CCCC1CN(C1CN(c3ccccc3)C1)C2 [Compound 151, 3-((1R,5S,9r)-9-methoxy-3-(1-phenylazetidin-3-yl)-3-azabicyclo[3.3.1]nonan-9-yl)benzamide (S)-2-hydroxysuccinate] | < 10 | < 1 | –
COC1(c2cccc(C(N)=O)c2)C2CCCC1CN(C[C@H]1C[C@@H]3C[C@@H]3C1)C2 (stereo partly drawn) [Compound 152, 3-((1R,5s,9R)-3-((1R,3s,5S)-bicyclo[3.1.0]hexan-3-ylmethyl)-9-methoxy-3-azabicyclo[3.3.1]nonan-9-yl)benzamide hydrochloride] | < 10 | < 1 | –
COC1(c2cccc(C(N)=O)c2)C2CCCC1CN(CCCF)C2 [Compound 157, 3-((1R,5S,9r)-3-(3-fluoropropyl)-9-methoxy-3-azabicyclo[3.3.1]nonan-9-yl)benzamide hydrochloride] | 10 to 75 | < 1 | –
COC1(c2ccnc(C(N)=O)c2)C2CCCC1CN(C1CCC3(CC1)COC3)C2.O=C(O)CC(O)C(=O)O [Compound 158, 4-((1R,5S,9r)-9-methoxy-3-(2-oxaspiro[3.5]nonan-7-yl)-3-azabicyclo[3.3.1]nonan-9-yl)picolinamide (S)-2-hydroxysuccinate] | – | – | <60 mmHg @ 10X CFA MEMD (Male Sprague-Dawley rats [3]): + (resulted in a maximum pCO2 value of less than 60 mmHg within 2 hours of administration); <60 mmHg @ 100X CFA MEMD (Male Sprague-Dawley rats [3]): + (resulted in a maximum pCO2 value of less than 60 mmHg within 2 hours of administration); minimal effective dose (Male Sprague-Dawley rats [4]): 0.1 mg/kg; Ki (μ-receptor [5]): 1 to 5 nM; EC50 (human μ opioid receptor [6]): 10 to 75 nM
CCOC1(c2cccc(C(N)=O)c2F)C2CCCC1CNC2 (stereo not drawn) [Compound 180] | > 75 | > 5 | –
NC(=O)c1cccc(C2(OCC(F)F)C3CCCC2CNC3)c1 (stereo not drawn) [Compound 182] | 10 to 75 | > 5 | –
CCOC1(c2ccc(F)c(C(N)=O)c2)C2CCCC1CNC2 (stereo not drawn) [Compound 183] | > 75 | > 5 | –
NC(=O)c1cccc(C2(OCCF)C3CCCC2CNC3)c1 (stereo not drawn) [Compound 187] | 10 to 75 | > 5 | –
CCOC1(c2cc(C(N)=O)ccc2Cl)C2CCCC1CNC2 (stereo not drawn) [Compound 188] | > 75 | > 5 | –
COC1(c2ccnc(C(N)=O)c2)C2CCCC1CN(C1CCC(F)(F)CC1)C2 (stereo not drawn) [Compound 195] | > 75 | 1 to 5 | –
COC1(c2cccc(C(N)=O)c2)C2CCCC1CN(C1CCC(F)(F)CC1)C2 (stereo not drawn) [Compound 196] | 10 to 75 | < 1 | –
COC1(c2ccnc(C(N)=O)c2)C2CCCC1CN([C@H]1C[C@@H]3[C@H](C1)C3(F)F)C2 (stereo partly drawn) [Compound 197] | < 10 | < 1 | –
COC1(c2ccnc(C(N)=O)c2)C2CCCC1CN(CC1(F)CCOCC1)C2 (stereo not drawn) [Compound 198] | – | > 5 | –
COC1(c2cccc(C(N)=O)c2)C2CCCC1CN(C1C[C@@H]3C[C@@H]3C1)C2 (stereo partly drawn) [Compound 199] | < 10 | < 1 | –
COC1(c2cccc(C(N)=O)c2)C2CCCC1CN([C@H]1C[C@@H]3[C@H](C1)C3(F)F)C2 (stereo partly drawn) [Compound 200] | < 10 | < 1 | –
COC1(c2ccnc(C(N)=O)c2)C2CCCC1CN(C1CC3CCC(C1)O3)C2 (stereo not drawn) [Compound 202] | > 75 | > 5 | –
COC1(c2cccc(C(N)=O)c2)C2CCCC1CN(C1CC3CCC(C1)O3)C2 (stereo not drawn) [Compound 203] | > 75 | 1 to 5 | –
